The text below walks through data of PubChem BioAssay AID1033 (Sanford-Burnham Center for Chemical Genomics, 2008).

Active and inactive are the calls of the source. How the calls were made is not given here.

Chaperone protein DnaK (Escherichia coli (strain K12)), sequence (P0A6Y8 whole entry, looked up): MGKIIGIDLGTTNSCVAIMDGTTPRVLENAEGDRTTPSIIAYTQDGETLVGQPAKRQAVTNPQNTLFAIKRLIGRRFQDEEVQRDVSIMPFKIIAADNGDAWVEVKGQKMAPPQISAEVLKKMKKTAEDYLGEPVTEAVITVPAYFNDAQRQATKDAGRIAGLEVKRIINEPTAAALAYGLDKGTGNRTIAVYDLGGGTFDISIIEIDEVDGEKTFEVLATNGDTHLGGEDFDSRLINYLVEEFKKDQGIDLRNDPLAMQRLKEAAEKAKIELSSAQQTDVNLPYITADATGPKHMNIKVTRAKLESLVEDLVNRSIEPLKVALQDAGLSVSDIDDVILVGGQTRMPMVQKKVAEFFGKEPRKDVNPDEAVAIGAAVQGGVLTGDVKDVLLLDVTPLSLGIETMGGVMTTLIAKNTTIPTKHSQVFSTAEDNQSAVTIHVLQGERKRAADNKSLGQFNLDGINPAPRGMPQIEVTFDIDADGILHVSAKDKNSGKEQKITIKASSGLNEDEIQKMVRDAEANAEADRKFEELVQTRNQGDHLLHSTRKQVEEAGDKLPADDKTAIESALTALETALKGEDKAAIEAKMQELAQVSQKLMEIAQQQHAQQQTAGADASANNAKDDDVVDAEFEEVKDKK

This assay addresses Chaperone protein DnaK (Escherichia coli (strain K12)) (UniProt P0A6Y8). Briefly: E. coli DnaK SBD ligand binding – biophysical, NMR, chaperone (AID 1033). The note with it: Purified DnaK SBD.
Regarding `NC(=O)Cn1cnc(-c2ccc(F)cc2)c1`, the Kd is > 4 mM (inactive).

For the compound `O=C1CCC(=O)N1c1cccc([N+](=O)[O-])c1`, the Kd is > 4 mM (inactive).

For the compound `O=c1ccc2ccccc2o1`, the Kd was > 4 mM (inactive).

Regarding `O=CN1CCN(C(=O)c2ccccc2F)CC1`, the Kd was > 4 mM (inactive).

`COC(=O)[C@]1(C)CC[C@]2(C)CC[C@]3(C)C4=CC=C5C(=CC(=O)C(O)=C5C)[C@]4(C)CC[C@@]3(C)[C@@H]2C1`: the Kd was > 4 mM (inactive).

With `CC1(C)CC2C1CC[C@]1(C)CCC3C(C(=O)O)CC(=O)O[C@@]32C1` (some centres undefined), the Kd was > 4 mM (inactive).

As for `NC(=O)CSc1nnc(-c2ccncc2)o1`, the Kd is > 4 mM (inactive).

`OCc1ccc(N2CCOCC2)cc1`: the Kd was > 4 mM (inactive).

On to `Cc1ccc(N2NC(=O)CC2=O)cc1C`, for which the Kd was > 4 mM (inactive).

In the case of `Nc1ccc2c(c1)CCCC2=O`, the Kd is > 4 mM (inactive).

As for `CC(=O)CS(=O)(=O)c1ccccc1`, the Kd was > 4 mM (inactive).

Regarding `CC(=O)c1cc(CN2C(=O)c3ccccc3C2=O)cs1`, the Kd was > 4 mM (inactive).

Regarding `CC(=O)c1ccc(-n2ccnc2)cc1`, the Kd is > 4 mM (inactive).

Consider `CC1SC(=NC(=O)c2ccco2)NC1=O` (centres undefined), for which the Kd is > 4 mM (inactive).

In the case of `CC(=O)NC(NC(C)=O)c1ccccc1`, the Kd is > 4 mM (inactive).

As for `COc1cc(O)c2c(=O)cc(-c3ccc(OC)c(-c4c(O)cc(O)c5c(=O)cc(-c6ccc(O)cc6)oc45)c3)oc2c1`, the Kd is > 4 mM (inactive).

With `O=C1CCC(=O)N1c1nc2ccccc2s1`, the Kd was > 4 mM (inactive).

For `O=CN1CCN(C(=O)c2ccc(F)cc2)CC1`, the Kd is > 4 mM (inactive).

With `CC(=O)NC1=C(N(C)C)C(=O)c2ccccc2C1=O`, the Kd was > 4 mM (inactive).

For `NC1=NC(=O)/C(=C/c2ccc(O)c(Cl)c2)S1`, the Kd was > 4 mM (inactive).

As for `N#Cc1cc2c(nc1SCc1ccncc1)CCC2`, the Kd is > 4 mM (inactive).

For `O=C(Nc1ccc(N2CCOCC2)cc1)C1CC1`, the Kd is > 4 mM (inactive).

Take `NC(=S)NC1CCS(=O)(=O)C1` (centres undefined): the Kd was > 4 mM (inactive).

Consider `OC1COCc2nc3ccccc3n2C1` (centres undefined), for which the Kd was > 4 mM (inactive).

`COc1ccccc1NC(=O)CCC(=O)O`: the Kd was > 4 mM (inactive).

Regarding `CC(=O)c1c(C)n([O-])c2ccccc2[n+]1=O`, the Kd was > 4 mM (inactive).

With `Cc1ccc(CCNc2ccccc2)c[n+]1[O-]`, the Kd is > 4 mM (inactive).

With `O=c1oc2ccccc2cc1O`, the Kd is > 4 mM (inactive).

Turning to `CCNC(=S)NS(=O)(=O)c1ccccc1`, the Kd was > 4 mM (inactive).

For the compound `NC(CSCSCC(N)C(=O)O)C(=O)O` (centres undefined), the Kd was > 4 mM (inactive).

On to `O=C(N1CCOCC1)N1CCN(c2ccccn2)CC1`, for which the Kd is > 4 mM (inactive).

`NN1C(=O)/C(=C/c2ccc(O)c(O)c2)SC1=S`: the Kd was > 4 mM (inactive).

Regarding `O=C1CC(=O)N(c2cccc(Cl)c2)N1`, the Kd is > 4 mM (inactive).

Regarding `Cn1c(=O)n(CC(=O)Nc2cccnc2)c2ccccc21`, the Kd is > 4 mM (inactive).

As for `CC(=O)Oc1ccc2c(c1C(C)C)CCC1C(C)(C)CCC[C@]21C` (some centres undefined), the Kd is > 4 mM (inactive).

For the compound `Cc1cc(NC(=O)c2ccc3c(c2)OCO3)no1`, the Kd is > 4 mM (inactive).

Regarding `COCc1cc(=O)oc2cc(O)c(Cl)cc12`, the Kd is > 4 mM (inactive).

On to `C[C@@H]1CC[C@@]2(OC1)OC1C(O)C3C4CC[C@H]5C[C@H](O[C@@H]6O[C@H](CO)[C@H](O[C@@H]7O[C@H](CO)[C@@H](O)[C@H](O[C@@H]8OC[C@@H](O)[C@H](O)[C@H]8O)[C@H]7O[C@@H]7O[C@H](CO)[C@H](O)[C@H](O[C@@H]8O[C@H](CO)[C@@H](O)[C@H](O)[C@H]8O)[C@H]7O)[C@H](O)[C@H]6O)[C@H](O)C[C@]5(C)C4CC[C@]3(C)C1[C@@H]2C` (some centres undefined), for which the Kd was > 4 mM (inactive).

In the case of `Cc1nnc(SCC(=O)N2CCc3ccccc32)s1`, the Kd is > 4 mM (inactive).

Regarding `Cc1cc(C(=O)Nc2ccc3c(c2)OCO3)cs1`, the Kd is > 4 mM (inactive).

On to `COc1nc(C)ccc1-c1noc(-c2ccncc2)n1`, for which the Kd was > 4 mM (inactive).

For the compound `C=CCc1ccc(OC(=O)c2ccccc2)c(OC)c1`, the Kd was > 4 mM (inactive).

For `O=C(Nc1ccc2[nH]ccc2c1)c1cccs1`, the Kd is less than 0.2 mM.

With `NC(=O)c1cc(Cl)c(C(N)=O)cc1Cl`, the Kd is > 4 mM (inactive).

For the compound `Cc1cc(C(=O)c2c(C)nn(C)c2Cl)n(C)n1`, the Kd is > 4 mM (inactive).

For `COc1ccc(CN2CCOCC2)c(C)c1C`, the Kd was > 4 mM (inactive).

Take `CS(=O)(=O)Cc1ccccc1`: the Kd was > 4 mM (inactive).

For the compound `O=C(CS(=O)(=O)c1ccccc1)Nc1nccs1`, the Kd is > 4 mM (inactive).

For `O=C(CS(=O)(=O)c1ccccc1)N1CCCCCC1`, the Kd is > 4 mM (inactive).

For the compound `COc1ccc2c(c1)OC/C(=C/c1ccc(OC)c(OC)c1)C2=O`, the Kd is > 4 mM (inactive).

Consider `CCN1CCN(c2ncnc3c2nnn3C)CC1`, for which the Kd is > 4 mM (inactive).

Turning to `CCCc1cc2c(c(NC(C)=O)n1)c(=O)oc1ccccc12`, the Kd was > 4 mM (inactive).

Take `NC(=O)CSc1ccc2nnc(-c3ccccc3)n2n1`: the Kd is > 4 mM (inactive).

For `Cn1nnc2cc(C(=O)Nc3cccnc3)ccc21`, the Kd is > 4 mM (inactive).

In the case of `CC(=O)Nc1ccc(NC(=O)c2ccncc2)cc1`, the Kd was > 4 mM (inactive).

`Cc1ccc(C(=O)Nc2c[nH]c(=O)[nH]c2=O)cc1`: the Kd is > 4 mM (inactive).

For `Fc1ccc(Br)cc1/C=N/n1cnnc1`, the Kd was > 4 mM (inactive).

Turning to `Cn1ncc2c(=O)n(CC(=O)c3ccccc3)cnc21`, the Kd is > 4 mM (inactive).

`CC(=O)n1c(N)nc2ccccc21`: the Kd is > 4 mM (inactive).

Take `Cc1nc(-c2ccccc2)sc1CO`: the Kd is > 4 mM (inactive).

Consider `CCOC(=O)C1CCN(c2ncnc3nc[nH]c23)CC1`, for which the Kd was > 4 mM (inactive).

For `Nc1ncnc2nc(SCCN3CCCCC3)[nH]c12`, the Kd was > 4 mM (inactive).

Regarding `CC1CC[C@@]2(OC1)O[C@H]1CC3C4CC[C@@H]5C[C@@H](O)CC[C@]5(C)C4CC[C@]3(C)[C@H]1[C@@H]2C` (some centres undefined), the Kd is > 4 mM (inactive).

As to `CC(=O)c1ccc[nH]1`, the Kd is > 4 mM (inactive).

In the case of `COc1ccc2cc3[n+](cc2c1OC)CCc1cc2c(cc1-3)OCO2`, the Kd was > 4 mM (inactive).

For the compound `Cc1c(-c2ccccc2)[n+](=O)c(-c2ccco2)c(C)n1[O-]`, the Kd is > 4 mM (inactive).

On to `O=C(Nc1ccc(F)cc1F)c1ccco1`, for which the Kd is > 4 mM (inactive).

Consider `COCCn1c(C)cc(O)cc1=O`, for which the Kd was > 4 mM (inactive).

`CCn1c(=O)cc(N2CCC3(CC2)OCCO3)[nH]c1=O`: the Kd was > 4 mM (inactive).

As to `Fc1ccc(CN2CCCNCC2)cc1`, the Kd is > 4 mM (inactive).

On to `NC(=NCCC[C@H](N)C(=O)O)NC(CCC(=O)O)C(=O)O` (some centres undefined), for which the Kd is > 4 mM (inactive).

Turning to `O=C(CSc1cccc2cccnc12)N1CCCC1`, the Kd is > 4 mM (inactive).

`Clc1ccc(-n2ccnc2)nn1`: the Kd is > 4 mM (inactive).

On to `COc1nc(-c2ccccc2)ccc1-c1noc(C)n1`, for which the Kd was > 4 mM (inactive).

For the compound `CC12CCCC(O)(C1)C1CC(C)(C)C1CC2` (centres undefined), the Kd was > 4 mM (inactive).

For the compound `COn1c(=O)c(-c2ccco2)[n+]([O-])c2ccccc21`, the Kd was > 4 mM (inactive).

Consider `CCOC(=O)CC1Sc2ccccc2NC1=O` (centres undefined), for which the Kd was > 4 mM (inactive).

Regarding `NC(=O)c1ccc(C(N)=O)c(-c2ccccc2)c1`, the Kd is > 4 mM (inactive).

Turning to `CNc1nc(N)c(C(=O)C(C)(C)C)s1`, the Kd is > 4 mM (inactive).

On to `C[N+](C)(C)CC(O)CC(=O)O` (centres undefined), for which the Kd is > 4 mM (inactive).

As for `O=C(O)CSc1cccc2cccnc12`, the Kd is > 4 mM (inactive).

As for `COc1ccc2c(c1)OCC(Cc1ccc(OC)c(OC)c1)C2=O` (centres undefined), the Kd is > 4 mM (inactive).

`Cc1cc(C)nc(NC(N)=NCc2ccco2)n1`: the Kd was > 4 mM (inactive).

Consider `Cc1nnsc1C(=O)Nc1ccccn1`, for which the Kd is > 4 mM (inactive).

With `COc1cc(/C=C2\SC(=S)NC2=O)ccc1O`, the Kd was > 4 mM (inactive).

Take `NC(=O)C1CCN(S(=O)(=O)c2ccccc2)CC1`: the Kd was > 4 mM (inactive).

On to `CC(=O)O[C@@H]1CC2C(C)(C)[C@H](O)CC[C@]2(C)C2CC[C@@]3(C)[C@H](c4ccoc4)OC(=O)C4OC43[C@@]21C` (some centres undefined), for which the Kd was > 4 mM (inactive).

Turning to `Cc1occc1C(=O)NCc1ccncc1`, the Kd is > 4 mM (inactive).

For the compound `CN(C)c1n[nH]c(=O)[nH]c1=O`, the Kd was > 4 mM (inactive).

In the case of `O=C(Nc1ccon1)c1ccc(Cl)s1`, the Kd is > 4 mM (inactive).

`CC(=O)O[C@@H]1C[C@@]2(C)[C@H](c3ccoc3)C[C@H]3O[C@]32[C@]2(C)C(=O)C(O)=C3C(C)(C)C(=O)C=C[C@]3(C)C12` (some centres undefined): the Kd was > 4 mM (inactive).

On to `CCOc1ccc2ccccc2c1C(=O)N1CCOCC1`, for which the Kd is > 4 mM (inactive).

Take `CCC[C@H]1CC2=C(C[C@@H](CC)CC3=C1C(=O)OC3=O)C(=O)OC2=O`: the Kd is > 4 mM (inactive).

Consider `COc1ccc2c(c1)[n+](=O)c(C(C)=O)c(C)n2[O-]`, for which the Kd is > 4 mM (inactive).

Turning to `CSc1nnc2c(n1)OC=Nc1ccccc1-2`, the Kd was > 4 mM (inactive).

Turning to `C/C=C/COc1nc2c(c(=O)n(C)c(=O)n2C)n1C`, the Kd is > 4 mM (inactive).

For `NCc1c[nH]c2ccccc12`, the Kd was > 4 mM (inactive).

For `N#Cc1cn(CC(=O)N2CCCC2)c2ccccc12`, the Kd was > 4 mM (inactive).

For `Nc1cc(=O)[nH]c(=S)n1-c1ccc(F)cc1`, the Kd is > 4 mM (inactive).
